Laboratory results published in ChEMBL document CHEMBL4507328, “Data for DCP probe BAY-390” (2021).

Tests used:
[1] = biological target: Transient receptor potential cation channel subfamily V member 4 (Homo sapiens, UniProt Q9HBA0); experiment: TRP selectivity screen (TRPV4)
[2] = biological target: 5-hydroxytryptamine receptor 2A (Homo sapiens, UniProt P28223); details: Compound concentration 10.0 uM
[3] = biological target: T1, 5-hydroxytryptamine receptor 2C (Homo sapiens) (UniProt P28335); details: Compound concentration 10.0 uM
T1 sequence (whole entry): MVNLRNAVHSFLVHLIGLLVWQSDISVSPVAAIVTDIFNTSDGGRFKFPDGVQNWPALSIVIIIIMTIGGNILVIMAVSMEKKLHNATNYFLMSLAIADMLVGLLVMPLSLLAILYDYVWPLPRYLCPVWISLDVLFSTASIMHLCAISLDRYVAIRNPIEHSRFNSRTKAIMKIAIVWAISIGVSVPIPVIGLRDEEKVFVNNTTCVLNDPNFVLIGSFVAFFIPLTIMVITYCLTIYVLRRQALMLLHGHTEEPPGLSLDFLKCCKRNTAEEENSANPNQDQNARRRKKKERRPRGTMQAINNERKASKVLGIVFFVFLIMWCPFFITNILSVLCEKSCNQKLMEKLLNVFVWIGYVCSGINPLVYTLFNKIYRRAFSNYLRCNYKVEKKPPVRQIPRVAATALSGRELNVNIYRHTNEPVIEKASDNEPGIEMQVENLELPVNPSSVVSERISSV

[4] = biological target: D(3) dopamine receptor (Homo sapiens) (UniProt P35462); details: Compound concentration 10.0 uM
[5] = biological target: Mu-type opioid receptor (Homo sapiens) (UniProt P35372); details: Compound concentration 10.0 uM
[6] = biological target: Delta-type opioid receptor (Homo sapiens) (UniProt P41143); details: Compound concentration 10.0 uM
[7] = biological target: Kappa-type opioid receptor (Homo sapiens) (UniProt P41145); details: Compound concentration 10.0 uM
[8] = biological target: Histamine H1 receptor (Homo sapiens) (UniProt P35367); details: Compound concentration 10.0 uM
[9] = biological target: Alpha-1B adrenergic receptor (Homo sapiens) (UniProt P35368); details: Compound concentration 10.0 uM
[10] = biological target: T2, Muscarinic acetylcholine receptor M1 (Homo sapiens) (UniProt P11229); details: Compound concentration 10.0 uM
T2 sequence (whole entry): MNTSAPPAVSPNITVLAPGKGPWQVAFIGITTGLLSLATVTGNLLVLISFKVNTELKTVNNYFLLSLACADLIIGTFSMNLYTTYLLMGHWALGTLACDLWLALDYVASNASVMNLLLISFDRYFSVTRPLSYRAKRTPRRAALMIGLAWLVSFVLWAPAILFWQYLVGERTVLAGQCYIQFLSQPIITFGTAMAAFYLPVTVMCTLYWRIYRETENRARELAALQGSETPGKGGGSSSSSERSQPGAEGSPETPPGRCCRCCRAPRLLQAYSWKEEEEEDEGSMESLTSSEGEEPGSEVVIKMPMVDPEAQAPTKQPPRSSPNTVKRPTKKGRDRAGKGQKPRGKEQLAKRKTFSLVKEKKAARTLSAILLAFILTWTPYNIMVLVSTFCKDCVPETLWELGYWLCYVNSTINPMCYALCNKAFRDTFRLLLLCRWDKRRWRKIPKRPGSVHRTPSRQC

[11] = biological target: T3, Muscarinic acetylcholine receptor M2 (Homo sapiens) (UniProt P08172); details: Compound concentration 10.0 uM
T3 sequence (whole entry): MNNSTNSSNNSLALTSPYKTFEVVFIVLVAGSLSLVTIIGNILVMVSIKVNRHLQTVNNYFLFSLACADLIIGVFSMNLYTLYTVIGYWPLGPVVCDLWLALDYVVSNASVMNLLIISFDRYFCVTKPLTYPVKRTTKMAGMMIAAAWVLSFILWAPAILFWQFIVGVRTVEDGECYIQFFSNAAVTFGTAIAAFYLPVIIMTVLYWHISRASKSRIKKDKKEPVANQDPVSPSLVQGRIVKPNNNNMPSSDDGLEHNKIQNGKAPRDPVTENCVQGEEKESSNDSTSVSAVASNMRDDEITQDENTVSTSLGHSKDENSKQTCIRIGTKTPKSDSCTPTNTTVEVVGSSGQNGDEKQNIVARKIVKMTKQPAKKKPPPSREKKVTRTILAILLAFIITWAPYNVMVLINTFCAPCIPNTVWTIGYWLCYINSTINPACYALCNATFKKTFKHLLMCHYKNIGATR

[12] = biological target: T4, Muscarinic acetylcholine receptor M4 (Homo sapiens) (UniProt P08173); details: Compound concentration 10.0 uM
T4 sequence (whole entry): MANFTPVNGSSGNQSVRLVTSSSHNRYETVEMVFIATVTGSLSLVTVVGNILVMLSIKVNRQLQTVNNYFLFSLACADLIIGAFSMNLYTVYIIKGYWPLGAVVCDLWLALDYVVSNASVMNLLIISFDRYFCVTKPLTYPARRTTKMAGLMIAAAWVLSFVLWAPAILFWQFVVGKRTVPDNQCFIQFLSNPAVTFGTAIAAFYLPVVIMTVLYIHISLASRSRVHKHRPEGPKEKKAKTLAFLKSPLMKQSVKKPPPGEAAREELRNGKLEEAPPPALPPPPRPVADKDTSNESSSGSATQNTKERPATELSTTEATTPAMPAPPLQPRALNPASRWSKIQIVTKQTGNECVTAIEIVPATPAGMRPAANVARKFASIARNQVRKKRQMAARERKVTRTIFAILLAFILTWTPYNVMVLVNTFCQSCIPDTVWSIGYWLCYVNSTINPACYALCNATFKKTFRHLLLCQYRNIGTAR

Rattus norvegicus = species: Rattus norvegicus; details: Compound concentration 10.0 uM
[13] = biological target: B1 bradykinin receptor (Homo sapiens) (UniProt P46663); experiment: Inhibition of Bradykinin B1 at 10 µM in the Eurofins-Panlabs radioligand binding assay (Eurofins_assay_212510); details: Compound concentration 10.0 uM
[14] = biological target: Voltage-dependent T-type calcium channel subunit alpha-1H (Homo sapiens, UniProt O95180); experiment: Selectivity screen (CACNA1H)
[15] = biological target: Beta-2 adrenergic receptor (Homo sapiens) (UniProt P07550); details: Compound concentration 10.0 uM
[16] = biological target: Muscarinic acetylcholine receptor M3 (Homo sapiens) (UniProt P20309); details: Compound concentration 10.0 uM
[17] = biological target: Kappa-type opioid receptor (Homo sapiens) (UniProt P41145); details: Compound concentration 10.0 uM; remark: listed apart in the source
[18] = biological target: Glutamate receptor 2 (Homo sapiens) (UniProt P42262); details: Rattus norvegicus; Compound concentration 10.0 uM
[19] = biological target: Insulin receptor (Homo sapiens) (UniProt P06213); details: Rattus norvegicus; Compound concentration 10.0 uM

Chain of Kappa-type opioid receptor (Homo sapiens) (P41145 whole entry): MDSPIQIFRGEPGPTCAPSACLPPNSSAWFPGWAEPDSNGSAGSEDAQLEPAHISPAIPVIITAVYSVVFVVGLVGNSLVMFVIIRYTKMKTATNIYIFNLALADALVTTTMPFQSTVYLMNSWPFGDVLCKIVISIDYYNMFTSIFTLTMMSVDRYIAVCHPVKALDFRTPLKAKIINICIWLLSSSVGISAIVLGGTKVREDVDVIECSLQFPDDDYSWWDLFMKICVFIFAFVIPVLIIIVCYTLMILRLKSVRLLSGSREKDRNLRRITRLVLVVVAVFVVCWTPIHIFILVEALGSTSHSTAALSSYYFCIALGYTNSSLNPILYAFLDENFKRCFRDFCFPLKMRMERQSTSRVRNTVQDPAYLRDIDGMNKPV
Chain of Alpha-1B adrenergic receptor (Homo sapiens) (P35368 whole entry): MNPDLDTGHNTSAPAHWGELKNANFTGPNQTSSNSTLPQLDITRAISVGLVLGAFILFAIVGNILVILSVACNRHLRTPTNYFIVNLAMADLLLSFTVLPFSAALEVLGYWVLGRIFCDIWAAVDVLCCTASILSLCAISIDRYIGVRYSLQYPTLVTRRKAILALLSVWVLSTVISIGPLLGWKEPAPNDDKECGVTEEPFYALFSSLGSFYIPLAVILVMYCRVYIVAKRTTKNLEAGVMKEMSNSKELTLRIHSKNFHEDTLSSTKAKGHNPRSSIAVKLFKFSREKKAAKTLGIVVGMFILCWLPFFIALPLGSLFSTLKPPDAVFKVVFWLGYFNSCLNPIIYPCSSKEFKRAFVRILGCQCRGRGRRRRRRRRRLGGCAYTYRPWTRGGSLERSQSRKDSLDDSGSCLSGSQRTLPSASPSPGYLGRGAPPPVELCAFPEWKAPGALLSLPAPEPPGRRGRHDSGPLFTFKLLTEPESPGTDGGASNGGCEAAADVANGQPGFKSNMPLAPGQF
Chain of Transient receptor potential cation channel subfamily V member 4 (Q9HBA0 whole entry): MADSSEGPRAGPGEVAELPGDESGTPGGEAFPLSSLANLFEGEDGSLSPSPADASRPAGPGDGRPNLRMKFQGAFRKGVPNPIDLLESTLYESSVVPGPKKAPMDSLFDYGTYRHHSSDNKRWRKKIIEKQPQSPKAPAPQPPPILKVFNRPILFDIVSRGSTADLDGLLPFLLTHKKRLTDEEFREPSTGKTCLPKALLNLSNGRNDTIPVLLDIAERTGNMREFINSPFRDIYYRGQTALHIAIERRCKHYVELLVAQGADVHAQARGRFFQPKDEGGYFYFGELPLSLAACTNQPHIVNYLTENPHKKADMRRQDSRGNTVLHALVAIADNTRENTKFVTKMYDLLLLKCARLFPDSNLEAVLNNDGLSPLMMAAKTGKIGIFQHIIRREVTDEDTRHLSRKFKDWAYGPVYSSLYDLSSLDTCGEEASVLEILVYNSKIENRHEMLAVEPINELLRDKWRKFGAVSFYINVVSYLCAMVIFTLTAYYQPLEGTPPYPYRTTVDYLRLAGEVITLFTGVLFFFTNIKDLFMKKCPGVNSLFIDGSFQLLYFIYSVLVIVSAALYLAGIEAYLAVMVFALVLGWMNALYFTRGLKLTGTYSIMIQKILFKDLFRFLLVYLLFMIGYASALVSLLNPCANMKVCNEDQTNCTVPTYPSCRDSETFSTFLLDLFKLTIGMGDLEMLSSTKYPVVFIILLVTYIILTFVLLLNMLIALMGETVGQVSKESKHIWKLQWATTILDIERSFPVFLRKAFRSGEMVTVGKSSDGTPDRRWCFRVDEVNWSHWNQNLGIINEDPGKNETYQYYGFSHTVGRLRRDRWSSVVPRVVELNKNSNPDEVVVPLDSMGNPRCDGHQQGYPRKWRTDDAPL
Chain of 5-hydroxytryptamine receptor 2A (P28223 whole entry): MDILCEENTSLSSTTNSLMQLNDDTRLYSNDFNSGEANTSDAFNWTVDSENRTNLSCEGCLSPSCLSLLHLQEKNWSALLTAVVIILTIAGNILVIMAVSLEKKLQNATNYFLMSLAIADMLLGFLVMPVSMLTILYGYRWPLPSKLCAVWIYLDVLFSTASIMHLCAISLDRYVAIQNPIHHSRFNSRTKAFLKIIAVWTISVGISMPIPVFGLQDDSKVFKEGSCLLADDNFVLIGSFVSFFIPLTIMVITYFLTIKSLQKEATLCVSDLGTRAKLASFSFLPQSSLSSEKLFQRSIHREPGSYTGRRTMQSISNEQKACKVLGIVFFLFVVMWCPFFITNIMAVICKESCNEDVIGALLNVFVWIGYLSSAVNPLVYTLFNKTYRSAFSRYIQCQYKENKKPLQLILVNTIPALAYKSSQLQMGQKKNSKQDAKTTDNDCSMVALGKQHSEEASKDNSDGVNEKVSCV
Chain of D(3) dopamine receptor (Homo sapiens) (P35462 whole entry): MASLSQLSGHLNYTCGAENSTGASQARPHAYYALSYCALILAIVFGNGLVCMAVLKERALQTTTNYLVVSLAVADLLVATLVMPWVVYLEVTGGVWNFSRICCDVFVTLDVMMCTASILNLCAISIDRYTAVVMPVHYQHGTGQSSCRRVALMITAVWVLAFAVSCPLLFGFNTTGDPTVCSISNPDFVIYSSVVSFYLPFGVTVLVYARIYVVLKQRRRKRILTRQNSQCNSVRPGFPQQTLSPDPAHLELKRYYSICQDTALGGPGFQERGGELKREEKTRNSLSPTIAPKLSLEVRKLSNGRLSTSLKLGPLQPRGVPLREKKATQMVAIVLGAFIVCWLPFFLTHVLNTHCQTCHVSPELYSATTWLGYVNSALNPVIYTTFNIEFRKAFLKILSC
Chain of Delta-type opioid receptor (Homo sapiens) (P41143 whole entry): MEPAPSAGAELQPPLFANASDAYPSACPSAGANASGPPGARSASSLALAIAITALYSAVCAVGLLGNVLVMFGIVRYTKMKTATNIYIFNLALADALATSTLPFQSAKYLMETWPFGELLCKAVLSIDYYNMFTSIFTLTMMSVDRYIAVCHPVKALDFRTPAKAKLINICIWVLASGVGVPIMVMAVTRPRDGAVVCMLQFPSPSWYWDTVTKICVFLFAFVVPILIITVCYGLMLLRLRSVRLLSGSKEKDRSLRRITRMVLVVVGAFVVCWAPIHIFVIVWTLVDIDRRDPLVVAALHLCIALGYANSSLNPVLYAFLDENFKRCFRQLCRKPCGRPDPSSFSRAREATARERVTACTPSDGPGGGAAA
Chain of Histamine H1 receptor (Homo sapiens) (P35367 whole entry): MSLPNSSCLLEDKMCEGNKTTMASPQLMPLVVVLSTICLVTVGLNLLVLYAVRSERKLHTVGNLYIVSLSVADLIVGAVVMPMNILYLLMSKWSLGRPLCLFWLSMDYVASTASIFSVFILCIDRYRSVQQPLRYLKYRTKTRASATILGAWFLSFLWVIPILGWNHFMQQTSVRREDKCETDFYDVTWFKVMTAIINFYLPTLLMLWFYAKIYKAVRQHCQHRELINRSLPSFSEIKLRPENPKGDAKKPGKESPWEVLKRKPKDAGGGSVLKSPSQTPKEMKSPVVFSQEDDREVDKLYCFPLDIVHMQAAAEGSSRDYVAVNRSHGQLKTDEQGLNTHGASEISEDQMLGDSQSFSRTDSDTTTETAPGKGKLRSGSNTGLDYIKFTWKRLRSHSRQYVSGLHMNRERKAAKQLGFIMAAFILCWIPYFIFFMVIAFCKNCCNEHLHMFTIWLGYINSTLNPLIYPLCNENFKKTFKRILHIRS
Chain of Mu-type opioid receptor (Homo sapiens) (P35372 whole entry): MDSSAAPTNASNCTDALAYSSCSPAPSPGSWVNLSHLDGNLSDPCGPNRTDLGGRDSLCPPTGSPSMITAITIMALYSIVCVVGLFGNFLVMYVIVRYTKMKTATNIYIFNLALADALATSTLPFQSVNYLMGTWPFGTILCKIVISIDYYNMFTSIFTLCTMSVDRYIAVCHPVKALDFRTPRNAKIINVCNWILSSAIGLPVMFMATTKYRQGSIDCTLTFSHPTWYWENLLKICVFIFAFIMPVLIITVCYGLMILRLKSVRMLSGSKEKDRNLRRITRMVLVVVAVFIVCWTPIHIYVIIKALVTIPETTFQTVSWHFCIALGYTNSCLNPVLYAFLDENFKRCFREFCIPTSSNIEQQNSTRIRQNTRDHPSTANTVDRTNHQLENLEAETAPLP
Chain of Beta-2 adrenergic receptor (Homo sapiens) (P07550 whole entry, looked up): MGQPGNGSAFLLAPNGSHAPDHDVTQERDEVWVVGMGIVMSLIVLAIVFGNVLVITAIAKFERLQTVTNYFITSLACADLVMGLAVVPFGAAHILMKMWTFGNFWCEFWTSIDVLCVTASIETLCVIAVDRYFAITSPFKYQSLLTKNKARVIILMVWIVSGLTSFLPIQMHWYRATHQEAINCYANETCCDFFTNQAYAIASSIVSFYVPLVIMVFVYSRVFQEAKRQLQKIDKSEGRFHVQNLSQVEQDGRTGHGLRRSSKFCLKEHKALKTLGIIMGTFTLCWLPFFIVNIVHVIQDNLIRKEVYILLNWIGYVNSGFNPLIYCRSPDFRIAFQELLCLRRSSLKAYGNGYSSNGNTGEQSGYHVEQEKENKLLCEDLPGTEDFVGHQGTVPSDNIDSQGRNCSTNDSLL
Chain of Muscarinic acetylcholine receptor M3 (Homo sapiens) (P20309 whole entry, looked up): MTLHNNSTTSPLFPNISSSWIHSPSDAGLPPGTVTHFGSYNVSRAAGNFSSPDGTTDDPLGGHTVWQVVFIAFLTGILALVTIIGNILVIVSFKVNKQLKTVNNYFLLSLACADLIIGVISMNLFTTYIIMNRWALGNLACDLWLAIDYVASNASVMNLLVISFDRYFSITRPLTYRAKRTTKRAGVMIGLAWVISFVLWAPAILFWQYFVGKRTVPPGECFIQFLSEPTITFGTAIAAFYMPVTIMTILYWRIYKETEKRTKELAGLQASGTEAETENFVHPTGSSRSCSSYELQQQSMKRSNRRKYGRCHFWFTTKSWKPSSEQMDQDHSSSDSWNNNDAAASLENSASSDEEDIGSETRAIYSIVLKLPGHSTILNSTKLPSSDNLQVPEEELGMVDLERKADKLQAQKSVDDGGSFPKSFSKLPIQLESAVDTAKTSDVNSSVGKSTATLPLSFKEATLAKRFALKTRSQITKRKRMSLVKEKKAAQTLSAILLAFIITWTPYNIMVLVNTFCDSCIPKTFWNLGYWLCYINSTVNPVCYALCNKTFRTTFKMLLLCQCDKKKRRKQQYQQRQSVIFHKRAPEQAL

Compound | IC50 [1] | inhibition [2] [%] | inhibition [3] [%] | inhibition [4] [%] | inhibition [5] [%] | inhibition [6] [%] | inhibition [7] [%] | inhibition [8] [%] | inhibition [9] [%] | inhibition [10] [%] | inhibition [11] [%] | inhibition [12] [%] | inhibition (Rattus norvegicus) [%] | inhibition [13] [%] | IC50 [14] | inhibition [15] [%] | inhibition [16] [%] | inhibition [17] [%] | inhibition [18] [%] | inhibition [19] [%]
COc1cc(N[C@@H]2CCCC[C@]2(O)C(F)(F)F)ccc1F [BAY-9897] | > 25 µM (not active) | 1 | -0.76 | -0.75 | 10.3 | 14.4 | 10.5 | -8.03 | 0.41 | 18.5 | 3.81 | -3.95 | -1.71 | – | – | – | – | – | – | –
O[C@]1(C(F)(F)F)CCCC[C@H]1Nc1ccc(F)cc1 [BAY-390] | > 25 µM (not active) | 69.4 | 23.4 | -6.61 | 6.05 | 21.4 | 9.94 | 25.7 | 8.7 | 8.3 | -2.71 | 13.9 | 2.79 | 9 | > 30 µM (not active) | 11 | 21 | 7 | 8 | 8
